Reference: US7989642B2, “Process for producing powdered compositions containing highly unsaturated fatty acid esters of ascorbic acid and powdered compositions containing the esters” (Suntory Holdings Limited, priority 2003, dated 2011)

Assay: Test for the stability against oxidation of arachidonic acid moiety (storage at 37° C., humidity 12%, gas chromatography of non-oxidized arachidonic acid)
Assay type: physicochemical
Conditions: stored at 37° C.
Protocol: The resulting microcapsulated powder of 6-O-arachidonoyl-ascorbate was left in the air at 37° C. and a humidity of 12% for 30 days to determine the stability of the powder against oxidation (See, Example 4 below). During the 30-day period, samples were taken at predetermined intervals and were hydrolyzed into methyl arachidonate, which in turn was subjected to gas chromatography to determine the amount of non-oxidized arachidonic acid. As shown, the stability of any polysaccharides used was improved by powdering. The increase in the stability against oxidation was particularly significant in gum Arabic and soybean polysaccharide.
240 mg of each powder product (microcapsule) obtained in each example was placed in a flat bottom glass container (1.5 cm inner diameter, 3 cm high). Using an aqueous solution of lithium chloride, the humidity inside the container was maintained at 12% and the powder was stored at 37° C. The cup was taken out at predetermined intervals and the 6-O-arachidonoyl-ascorbate encapsulated in the microcapsules was hydrolyzed, followed by esterification with methyl groups. The amount of non-oxidized arachidonic acid was determined by gas chromatography (GC-14B, manufactured by SHIMADZU CORP.). The samples were analyzed using methyl myristate as an internal standard. […]

disappearance of non-oxidized arachidonic acid	proportion of the arachidonic acid left unoxidized (after 30 days, relative to Day 0)	Compound
disappeared in a few hours	–	CCCCC/C=C\C/C=C\C/C=C\C/C=C\CCCC(=O)O [non-capsulated arachidonic acid, arachidonic acid]
–	30%	6-O-arachidonoyl-ascorbate
